Data published in patent US10577332B2, “Tetrazole derivatives” (Hoffmann-La Roche Inc., priority 2015, dated 2020).

Key:
human EAAT3 = biological target: T1, human EAAT3 (Homo sapiens, UniProt P43005); assay: FLIPR Membrane Potential (FMP) assay; assay type: cell-based; conditions: HEK-293 cells stably expressing human EAAT3; antagonist applied 15 min before L-glutamate at EC80; Kb by Cheng-Prusoff from IC50
T1 construct: expressed in transfected cells
T1 sequence (P43005 1-524): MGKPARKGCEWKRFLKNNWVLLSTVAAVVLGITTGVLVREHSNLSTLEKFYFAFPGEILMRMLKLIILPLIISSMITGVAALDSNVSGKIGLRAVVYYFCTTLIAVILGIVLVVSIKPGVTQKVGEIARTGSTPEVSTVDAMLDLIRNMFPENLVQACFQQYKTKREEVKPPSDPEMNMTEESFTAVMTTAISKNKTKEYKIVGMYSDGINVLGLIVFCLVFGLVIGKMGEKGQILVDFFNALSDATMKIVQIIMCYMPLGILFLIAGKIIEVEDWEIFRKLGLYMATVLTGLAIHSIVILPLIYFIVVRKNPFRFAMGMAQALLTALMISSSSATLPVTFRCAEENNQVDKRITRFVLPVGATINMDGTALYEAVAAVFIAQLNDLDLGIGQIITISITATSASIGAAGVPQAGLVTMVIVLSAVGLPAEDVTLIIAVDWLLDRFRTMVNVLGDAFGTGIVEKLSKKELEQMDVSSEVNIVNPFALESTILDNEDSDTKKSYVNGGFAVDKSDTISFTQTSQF
In short: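 HEK-293 cells stably expressing human EAAT3, loaded with membrane-potential dye 1 h at 37 °C in Krebs buffer pH 7.4. Antagonists added 15 min before L-glutamate at EC80; peak fluorescence minus basal read on FLIPR at room temperature. Kb derived from IC50 via Cheng-Prusoff.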

Structure (SMILES)	Kb (human EAAT3)	melting point
CC(C)(C)NC(=O)c1cc(-c2ccc(Cl)cc2)cc(-n2nnnc2C(F)(F)F)c1 [Example 75, N-tert-Butyl-3-(4-chlorophenyl)-5-[5-(trifluoromethyl)-tetrazol-1-yl]-benzamide]	110 nM	186 °C
Cc1nnnn1-c1cc(C(=O)NC(C)(C)C)cc(-c2ccc(F)cc2)c1 [Example 80, N-tert-Butyl-3-(4-fluorophenyl)-5-(5-methyltetrazol-1-yl)-benzamide]	180 nM	80 °C
CC(C)(NC(=O)c1cc(-c2ccc(Cl)cc2)cc(-n2nnnc2C(F)(F)F)c1)C(F)(F)F [Example 79, 3-(4-Chlorophenyl)-N-(1,1,1-trifluoro-2-methylpropan-2-yl)-5-[5-(trifluoromethyl)tetrazol-1-yl]-benzamide]	200 nM	166.5 °C
CC(C)c1nnnn1-c1cc(C(=O)NC(C)(C)CO)cc(-c2ccc(F)cc2)c1 [Example 62, 3-(4-Fluorophenyl)-N-(1-hydroxy-2-methylpropan-2-yl)-5-(5-propan-2-yltetrazol-1-yl)-benzamide]	550 nM	86.5 °C
Cc1ccc(-c2cc(C(=O)NC3(C)CCS(=O)(=O)C3)cc(-n3nnnc3C(C)C)c2)cc1 (racemic) [Example 17, (RS)-N-(3-methyl-1,1-dioxothiolan-3-yl)-3-(4-methylphenyl)-5-(5-propan-2-yltetrazol-1-yl)-benzamide]	250 nM	112 °C
Cc1nnnn1-c1cc(C(=O)NC(C)(C)C(F)(F)F)cc(-c2ccc(F)cc2)c1 [Example 86, 3-(4-Fluorophenyl)-5-(5-methyltetrazol-1-yl)-N-(1,1,1-trifluoro-2-methylpropan-2-yl)-benzamide]	200 nM	86 °C
CC(C)(C)NC(=O)c1cc(-c2ccc(C(F)(F)F)cc2)cc(-n2cnnn2)c1 [Example 3, N-tert-Butyl-3-(tetrazol-1-yl)-5-[4-(trifluoromethyl)phenyl]-benzamide]	470 nM	108 °C

The remaining lines, values ahead:

Kb (human EAAT3)	melting point	Structure (SMILES)
250 nM	187 °C	CC1(NC(=O)c2cc(-c3ccc(Cl)cc3)cc(-n3nnnc3C(C)(C)C)c2)CCS(=O)(=O)C1 (racemic) [Example 89, (RS)-3-(5-tert-Butyltetrazol-1-yl)-5-(4-chlorophenyl)-N-(3-methyl-, 1-dioxothiolan-3-yl)benzamide]
520 nM	92 °C	Cc1ccc(-c2cc(C(=O)NC(C)(C)C3CC3)cc(-n3nnnc3C(C)(C)C)c2)cc1F [Example 115, 3-(5-tert-Butyltetrazol-1-yl)-N-(2-cyclopropylpropan-2-yl)-5-(3-fluoro-4-methylphenyl)-benzamide]
205 nM	107 °C	CC(C)c1nnnn1-c1cc(C(=O)NC(C)(C)C#N)cc(-c2ccc(Cl)cc2)c1 [Example 101, 3-(4-Chlorophenyl)-N-(2-cyanopropan-2-yl)-5-(5-propan-2-yltetrazol-1-yl)-benzamide]
